{"source": "ChEMBL document CHEMBL5727716", "about": "“Guanidine derivative and medical use thereof” (2020)", "molecular_target": "T1, Mucosa-associated lymphoid tissue lymphoma translocation protein 1 (Homo sapiens, UniProt Q9UDY8)", "T1 sequence (Q9UDY8 whole entry)": "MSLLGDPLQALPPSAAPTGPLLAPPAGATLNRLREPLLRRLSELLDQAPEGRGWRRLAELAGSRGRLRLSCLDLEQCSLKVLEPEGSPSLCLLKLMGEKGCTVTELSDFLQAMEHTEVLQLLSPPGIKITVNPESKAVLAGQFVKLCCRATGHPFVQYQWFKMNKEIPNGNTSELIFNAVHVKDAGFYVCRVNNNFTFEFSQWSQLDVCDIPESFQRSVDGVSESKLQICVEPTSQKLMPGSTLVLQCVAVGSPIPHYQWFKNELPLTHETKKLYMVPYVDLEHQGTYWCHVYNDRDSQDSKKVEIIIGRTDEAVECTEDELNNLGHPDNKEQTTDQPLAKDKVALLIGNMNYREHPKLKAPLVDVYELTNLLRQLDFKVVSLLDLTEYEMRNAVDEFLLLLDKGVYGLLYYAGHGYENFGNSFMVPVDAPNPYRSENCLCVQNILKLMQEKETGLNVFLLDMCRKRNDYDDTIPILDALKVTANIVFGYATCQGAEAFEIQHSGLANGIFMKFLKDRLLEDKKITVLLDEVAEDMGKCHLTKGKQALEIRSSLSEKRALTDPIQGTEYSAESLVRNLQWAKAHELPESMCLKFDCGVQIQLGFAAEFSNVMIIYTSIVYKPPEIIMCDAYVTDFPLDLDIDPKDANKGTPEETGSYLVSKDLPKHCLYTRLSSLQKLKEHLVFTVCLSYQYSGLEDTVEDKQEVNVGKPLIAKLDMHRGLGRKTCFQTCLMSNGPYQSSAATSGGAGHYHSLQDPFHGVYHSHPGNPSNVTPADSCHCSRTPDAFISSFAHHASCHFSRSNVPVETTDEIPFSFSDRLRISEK", "experiment": "Inhibition of Protease Activity Assay: Full-length cDNA of human MALT1 gene (GenBank accession No: AB026118.1) amplified by PCR was inserted in flame to a SalI site located downstream of GST gene in a pGEX6P3 vector (GE Healthcare Japan Corp.) to prepare a vector (hereinafter, referred to as a pGEX6P3-MALT1 vector). Subsequently, E. coli for protein expression (BL21-RIL-codon plus-DE3, Agilent Technologies, Inc.) was transformed with the pGEX6P3-MALT1 vector and then analyzed by ampicillin resistance screening and colony PCR to obtain an E. coli strain expressing recombinant GST fusion MALT1. Protein expression was induced with isopropyl-(3-thiogalactopyranoside. After the expression induction, E. coli precipitates were recovered by centrifugation from the E. coli culture solution, and the E. coli precipitates were homogenized and then centrifuged to obtain a supernatant. The supernatant was purified using GSTrap FF column (GE Healthcare Japan Corp.) to obtain recombinant GST fusion MALT1.B) Evaluation of Inhibition of Protease Activity of MALT1:To 89 μL of an enzyme solution ([…] GST fusion MALT1, 50 mmol/L MES, 150 mmol/L NaCl, 10% sucrose, 0.1% CHAPS, 10 mmol/L dithiothreitol, and 1 mol/L tri-ammonium citrate) per specimen, 1 μL of a test compound (DMSO-diluted solution) of each concentration was added to prepare a mixed solution. […]"}
{"molecule": "CCCC(=O)/N=C(\\N)NCc1cnc(-c2ccc(Cl)cc2)c(-c2ccc(Cl)cc2)c1", "values": [{"measurement": "IC50", "result": 572, "unit": "nM"}]}
